According to the supplement of paper PMC10307832:

Legend:
Assay in all cases: relative viability (nuclei count vs DMSO), 5 days (fraction); higher = more cells survive
201T = test system: 201T
In short: (§1)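 After 5 days of treatment, lung cancer cells in 1536-well plates were fixed and stained in a single step (final 0.05% Triton X-100, 1% formaldehyde, 1 ug/ml Hoechst) and their nuclei counted on 4× images. Treatment had been applied by pin tool the day after seeding as one drug alone or as a fixed anchor-drug dose with five library-drug doses (not always all listed) in √10 steps. Relative viability is the nuclei count of treated wells divided by that of vehicle wells, and values are medians of duplicate plates.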

ABC-1 = test system: ABC-1
In short: as §1

COR-L 105 = test system: COR-L 105
In short: as §1

COR-L23 = test system: COR-L23
In short: as §1

EKVX = test system: EKVX
In short: as §1

EPLC-272H = test system: EPLC-272H
In short: as §1

H3255 = test system: H3255
In short: as §1

HCC-15 = test system: HCC-15
In short: as §1

HCC-44 = test system: HCC-44
In short: as §1

HCC-827 = test system: HCC-827
In short: as §1

LCLC-103H = test system: LCLC-103H
In short: as §1

NCI-H1437 = conditions: first compound 0.08 µM
In short: as §1

Compound O=c1[nH]c2ccccc2n1C1CCN(CCCC(c2ccc(F)cc2)c2ccc(F)cc2)CC1 [Pimozide] + CC(C)C[C@H](NC(=O)[C@H](Cc1ccccc1)NC(=O)c1cnccn1)B(O)O [Bortezomib] (partner 0.002 µM) has a relative viability (201T; first compound 0.08 µM) of 1.07, a relative viability (201T; first compound 0.253 µM) of 1.05 and a relative viability (201T; first compound 0.8 µM) of 1.02. It also gave a relative viability (201T; first compound 2.53 µM) of 1.08, a relative viability (201T; first compound 8 µM) of 1.01 and a relative viability (ABC-1; first compound 0.08 µM) of 0.289. The relative viability (ABC-1; first compound 0.253 µM) was 0.284, the relative viability (ABC-1; first compound 0.8 µM) was 0.34 and the relative viability (ABC-1; first compound 2.53 µM) was 0.227. For the same compound, the relative viability (ABC-1; first compound 8 µM) was 0.26, the relative viability (COR-L 105; first compound 0.253 µM) was 0.749 and the relative viability (COR-L 105; first compound 0.8 µM) was 0.659. For the same compound, the relative viability (COR-L 105; first compound 2.53 µM) was 0.672, the relative viability (COR-L 105; first compound 8 µM) was 0.479 and the relative viability (COR-L23; first compound 0.08 µM) was 0.965. For the same compound, the relative viability (COR-L23; first compound 0.253 µM) was 0.945, the relative viability (COR-L23; first compound 0.8 µM) was 0.956 and the relative viability (COR-L23; first compound 2.53 µM) was 0.967. The relative viability (COR-L23; first compound 8 µM) was 0.964, the relative viability (EKVX; first compound 0.253 µM) was 1.11 and the relative viability (EKVX; first compound 0.8 µM) was 0.992. It also gave a relative viability (EKVX; first compound 2.53 µM) of 0.994, a relative viability (EKVX; first compound 8 µM) of 0.937 and a relative viability (EPLC-272H; first compound 0.08 µM) of 0.974. The relative viability (EPLC-272H; first compound 0.253 µM) was 1.04, the relative viability (EPLC-272H; first compound 0.8 µM) was 0.826 and the relative viability (EPLC-272H; first compound 2.53 µM) was 0.828. For the same compound, the relative viability (EPLC-272H; first compound 8 µM) was 0.91, the relative viability (H3255; first compound 0.253 µM) was 0.802 and the relative viability (H3255; first compound 0.8 µM) was 0.732. The relative viability (H3255; first compound 2.53 µM) was 0.759, the relative viability (H3255; first compound 8 µM) was 0.732 and the relative viability (HCC-15; first compound 0.08 µM) was 1.12. For the same compound, the relative viability (HCC-15; first compound 0.253 µM) was 0.994, the relative viability (HCC-15; first compound 0.8 µM) was 0.848 and the relative viability (HCC-15; first compound 2.53 µM) was 0.963. For the same compound, the relative viability (HCC-15; first compound 8 µM) was 0.908, the relative viability (HCC-44; first compound 0.08 µM) was 0.874 and the relative viability (HCC-44; first compound 0.253 µM) was 0.788. The relative viability (HCC-44; first compound 0.8 µM) was 0.856, the relative viability (HCC-44; first compound 2.53 µM) was 0.975 and the relative viability (HCC-44; first compound 8 µM) was 0.877. For the same compound, the relative viability (HCC-827; first compound 0.253 µM) was 0.943, the relative viability (HCC-827; first compound 0.8 µM) was 0.918 and the relative viability (HCC-827; first compound 2.53 µM) was 0.982. The relative viability (HCC-827; first compound 8 µM) was 1.04, the relative viability (LCLC-103H; first compound 0.08 µM) was 1 and the relative viability (LCLC-103H; first compound 0.253 µM) was 1.07. For the same compound, the relative viability (LCLC-103H; first compound 0.8 µM) was 0.877, the relative viability (LCLC-103H; first compound 2.53 µM) was 1.08 and the relative viability (LCLC-103H; first compound 8 µM) was 1.12. The relative viability (NCI-H1437) was 0.492.
